Assay results taken from patent publication US10071042B2, “External dermatological agent for anti-ageing” (Hayashibara Co., Ltd., priority 2014, dated 2018).
Marks after values point to notes of the source that are not given here.

What was measured:
[1] = test system: normal human epidermal keratinocytes; test: Differentiation of keratinocytes, microscopic morphology score (Experiment 1-1); type: cell-based; conditions: 3 days culture, mean of triplicate
Source text: To 12-well plates, one milliliter of a cell suspension with a cell density of 2.5×10^4 cells/mL prepared by suspending normal human epidermal keratinocytes in EpiLife, a product name of a medium for keratinocytes containing a growth factor, commercialized by Life Technologies, Inc., 9800 Medical Center Drive Rockville, Md. 20850 USA; followed by culturing the cells until prevailing up to about ½ of the bottom surface of each well. Thereafter, the culture medium in each well was replaced with a medium for keratinocytes free of growth factor and cultured for two days, and then replaced with a fresh medium for keratinocytes, which contained any one of the test substances in Table 1 at respective concentrations as indicated in the table, and then cultured for three days. As a control, a culture system was provided similarly as above except for not adding any of the test substances. Under a microscopic condition, cell morphology was observed and evaluated for the keratinocyte-differentiation-inducing ability based on the following criteria:
Score 1: The number of cells in a flattened form against the total cells is 50% or lower.
Score 2: The number of cells in a flattened form against the total cells is 50% or more.
Score 3: Nearly all of the cells are in an irregular shape and there appears some cells with gloss.
It means that the higher the score the more the cell differentiation was accelerated. Each experiment system was performed in a triplicate manner, followed by calculating a mean value for each system.

[2] = test system: normal human dermal fibroblasts (NHDF); test: Number of cells, cytometry kit (Experiment 5); type: cell-based; conditions: control = 100%
Source text: The number of cells was counted with a cytometry kit (or a staining method) and the variation of cell number when added with any one of the test substances, based on the value of control being regarded as 100%.

transglutaminase = test: Transglutaminase activity, fluorescein cadaverine uptake (Experiments 1-3 and 7); type: cell-based, human; conditions: for Transglutaminase activity (%): control = 100%
Method: Normal human epidermal keratinocytes were cultured similarly as in Experiment 1-1, except for adding the test substances as listed in Table 3 to respective culture systems. The cultured normal human epidermal keratinocytes were added with 100 μM of fluorescein cadaverine and allowed to stand for four hours. Thereafter, the resulting cells were washed once with phosphate buffered saline and further treated with cold methanol for 10 min for cell fixation. The fixed cells were washed thrice with cold methanol, followed by the addition of phosphate buffered saline. Fluorescein cadaverine taken in the cells via transglutaminase was analyzed with Cell Imaging Station, commercialized by Molecular Probes Life Technology, France, and the analyzed fluorescent intensities were regarded as transglutaminase activities. There was provided a control system similarly as in the above, except for not adding any of the test substances. The transglutaminase activity of each test substance was evaluated as a relative value determined with the following equation using the fluorescent intensity of the control system being regarded as 100%. Equation: Transglutaminase activity (relative value (%))=[(Fluorescent intensity of a sample with any one of test substances)/(Fluorescent intensity of control)]×100
The experiment was repeated three times, and the data was subjected to the Dunnett's multiple comparisons with Control. The symbol “*” means a level of significance of p<0.01.
Except for adding the test substances listed in Tables 8 and 9 at respective concentrations shown in the tables, experiments were respectively conducted in accordance with the methods in Experiments 1-2 and 1-3 disclosed in the specification to examine the effect of the combination use of epigallocatechin gallate, which is used as an antioxidant for cosmetics, and sodium adenosine N1-oxide 5′-phosphate on the action of accelerating the cornified-envelope production and the action of enhancing the transglutaminase activity of sodium adenosine N1-oxide 5′-phosphate. A control system was provided and similarly treated as above except for not adding any test substance and was determined for both the increase rates of cornified-envelope production level and the transglutaminase activity, based on the following equations. Equation: Increase rate of cornified envelope production level (%)={[(Absorbance of a sample with any one of test substances)/(Absorbance of control)]×100}−100 Equation: Increase rate of transglutaminase (%)={[(Absorbance of a sample with any one of test substances)/(Absorbance of control)]×100}−100

[3] = test system: human epidermoid carcinoma cell line A-431; test: Tight-junction function, lucifer yellow transmittance (Experiments 2 and 8); type: cell-based; conditions: for Relative transmittance of lucifer yellow (%): control = 100%
Source text: A human epidermoid carcinoma cell line A-431 was suspended in a media, supplemented with any of the test substances disclosed in Table 4 and having respective concentrations as indicated in the table, to give a cell concentration of 1×10^5 cells/mL, and each cell suspension was placed in an insert cup for a 12-well culture plate by two milliliters per well, followed by culturing the cells until reaching a confluent state through over the bottom surface of each well. The inner and the outer cup volumes were adjusted to give two milliliters while checking both the liquid levels of the cups were constant, and lucifer yellow as a model for permeating substance, commercialized by Life Technologies Corporation, CA, USA, was added to each inner cup to give a final concentration of 100 μM. Thereafter, the fluorescent intensities of lucifer yellow in the culture media in both the inner and the outer cups were measured, followed by calculating the percentage of the fluorescent intensity of the outer cup against that of the sum of the outer and the inner cups for use as a transmittance of lucifer yellow with the following equation. Equation: Transmittance of lucifer yellow (%)={(Absorbance of a liquid outside of an insert cup)/[(Absorbance of a liquid inside of the insert cup)+(Absorbance of the liquid outside of the insert cup)]}×100
There was provided a control system prepared similarly as above except for not adding any of the test substances, and the transmittance of lucifer yellow was regarded as 100% for evaluating the reduction of transmittance due to the reinforcement of the function of tight junction, based on the following equation. Equation: Relative transmittance (Relative percentage (%)) of lucifer yellow=[(Transmittance of a sample with any one of test substances)/(Transmittance of control)]×100
The experiment was repeated three times, and the data was subjected to the Dunnett's multiple comparisons with control. The symbol “*” means a level of significance of p<0.01.
Except for adding the test substances listed in Table 11 at respective concentrations shown in the table, experiments were respectively conducted in accordance with the methods in Experiment 2 disclosed in the specification to examine the effect of the combination use with ethylenediaminetetraacetate used as a preservative for cosmetics on the action of reinforcing the function of tight junction by sodium adenosine N1-oxide 5′-phosphate. A control system was provided and similarly treated as above except for not adding any test substance. The reduction rate of relative transmittance of lucifer yellow against that of control based on the following equation. Equation: Reduction rate of relative transmittance of lucifer yellow (%)=100−[(Transmittance of a sample with any one of test substances)/(Transmittance of control)]×100

Compound | Score ([1]; 200 μM) | Score ([1]; 400 μM) | Score ([1]; 800 μM) | Number of cells (%) ([2]; 200 μM) | Number of cells (%) ([2]; 400 μM) | Number of cells (%) ([2]; 800 μM) | Transglutaminase activity (%) (transglutaminase; 400 μM) | Relative transmittance of lucifer yellow (%) ([3]; 200 μM) | Relative transmittance of lucifer yellow (%) ([3]; 400 μM) | Score ([1]; 40 μM) | further results
3′-α-Glucosyladenosine [reference compound] | 0.0 | 0.0 | 0.0 | 98.9 | 101.1 | 107.2 | 269% | 94.5% | 94.8% | – | –
3′-α-glucosyl adenosine N1-oxide [3′-α-Glucosyladenosine N1-oxide] | – | – | – | 103.8 | 104.5 | 97.4 | – | 112.3% | 102.3% | 2.0 | Score ([1]; 80 μM): 2.0; Score ([1]; 160 μM): 3.0; Transglutaminase activity (%) (transglutaminase; 100 μM): 300%
5′-α-Glucosyladenosine [reference compound] | 0.0 | 0.0 | 0.0 | 104.0 | 103.4 | 93.4 | 33% | 94.2% | 82.3% | – | –
5′-α-glucosyl adenosine N1-oxide [5′-α-Glucosyladenosine N1-oxide] | 2.0 | 2.0 | 3.0 | 108.1 | 102.1 | 102.6 | 404* % | 97.1% | 96.8% | – | –
Nc1ncnc2c1ncn2[C@@H]1O[C@H](COP(=O)(O)O)[C@@H](O)[C@H]1O [Adenosine 5′-phosphate, reference compound] | – | – | – | 93.7 | 89.9 | 96.0 | 244% | 90.6% | 81.6% | – | –
Nc1c2ncn([C@@H]3O[C@H](CO)[C@@H](O)[C@H]3O)c2nc[n+]1[O-] [Adenosine N1-oxide, adenosine N1-oxide] | – | – | – | – | – | – | – | – | – | 3.0 | Score ([1]; 10 μM): 2.0; Score ([1]; 20 μM): 3.0; Number of cells (%) ([2]; 5 μM): 98.5%; Number of cells (%) ([2]; 10 μM): 94.6%; Number of cells (%) ([2]; 20 μM): 94.4%; Transglutaminase activity (%) (transglutaminase; 20 μM): 632* %; Transglutaminase activity (%) (transglutaminase; 20 μM, listed as adenosine N1-oxide): about 630%; Relative transmittance of lucifer yellow (%) ([3]; 10 μM): 71.6* %; Relative transmittance of lucifer yellow (%) ([3]; 20 μM): 71.3* %
Nc1ncnc2c1ncn2[C@@H]1O[C@H](CO)[C@@H](O)[C@H]1O [Adenosine, reference compound] | 0.0 | 0.0 | – | 93.5 | 87.4 | 91.2 | 360% | 77.1* % | 67.4* % | – | Score ([1]; 100 μM): 0.0
Nc1c2ncn([C@@H]3O[C@H](COP(=O)([O-])O)[C@@H](O)[C@H]3O)c2nc[n+]1[O-].[Na+] [Sodium adenosine N1-oxide 5′-phosphate, sodium adenosine N1-oxide 5′-phosphate] | – | – | – | – | – | – | – | – | – | 3.0 | Score ([1]; 10 μM): 2.0; Score ([1]; 20 μM): 3.0; Number of cells (%) ([2]; 5 μM): 99.9%; Number of cells (%) ([2]; 10 μM): 99.5%; Number of cells (%) ([2]; 20 μM): 92.2%; Increase rate of transglutaminase activity (%) (transglutaminase; 15 μM, single use, increase over control): 0.0%; Transglutaminase activity (%) (transglutaminase; 20 μM): 569* %; Transglutaminase activity (%) (transglutaminase; 20 μM, listed as sodium adenosine N1-oxide 5′-phosphate): about 570%; Reduction rate of relative transmittance of lucifer yellow (%) ([3]; 10 μM, single use, reduction against control): 21.6%; Relative transmittance of lucifer yellow (%) ([3]; 10 μM): 78.4%; reduction of lucifer yellow transmittance ([3]; 20 μM, compared to control): about 60%; Relative transmittance of lucifer yellow (%) ([3]; 20 μM): 62.3* %
